US20140004209A1, “AUTOPHAGY INDUCER AND INHIBITOR COMBINATION THERAPY FOR THE TREATMENT OF NEOPLASMS” (GENENTECH, INC., priority 2010, published 2014)
“Also recorded” adds a separate entry of the source. Like-named read-outs stand apart in the source and are kept apart here.

Assays:
Format in all cases: cell-based, human
[1] = system: PC3 cells; experiment: PC3 cell viability and cell death (PI exclusion, annexin V, caspase-3/7); settings: 4 μM II-4, 10 μM CQ, 0.5% FBS, 10 d
[2] = system: PC3 cells; experiment: Autophagy markers in PC3 cells (EM AVs, GFP-LC3, LC3-II/LC3-I, MDC, AO)
[3] = system: PC3 cells; experiment: Immunoblot of LAMP1, cathepsin D and p62 in PC3 cells
From the text: Western blot analysis, immunofluorescence, 1HC and TUNEL assay: For Western blot analysis, total protein lysates were subjected to SDS-PAGE and transferred to nitrocellulose. Antibodies used were: anti-Akt1, anti-Akt2, anti-Akt3, anti-total-Akt, anti-p-Akt (Ser473), anti-p-Akt (Thr308), anti-p-S6 (Ser235/236), anti-PARP and anti-cleaved caspase-3 (Cell Signaling Technology); anti-p-PRAS40 (Invitrogen); anti-p27^Kip1 (Santa Cruz Biotechnology); anti-LC3 (Novus); anti-LAMP2 and anti-Cathepsin D (BD Biosciences); and anti-GAPDH (Advanced Immunochemical Inc.). […] Detection and quantification were performed using an Odyssey infrared scanner (LICOR) using the manufacturer's software. For immunofluorescence staining, cells were fixed in 3% paraformaldehyde and permeabilized with 0.01% digitonin in PBS, followed by a rabbit polyclonal anti-LC3 (Abgent) primary antibody detected with a cy3-conjugated anti-rabbit secondary antibody (Jackson Immunoresearch). For IHC, formalin-fixed, paraffin-embedded specimens were collected. 5-μm-thick paraffin-embedded sections were stained using an anti-Ki-67 (MIB-1, DakoCytomation) antibody with the Dako ARK kit (Dako Corporation). Tissues were counterstained with haematoxylin, dehydrated, and mounted. In all cases, antigen retrieval was performed with the Dako Target Retrieval Kit as per manufacturer's instructions. For TUNEL assay, formalin-fixed, paraffin-embedded sections were stained using an in situ cell death detection kit (POD; Roche Diagnostic) according to the manufacturer's instructions.
Because autophagy is a key function of the lysosomal compartment (Terman, A., B. Gustafsson, and U. T. Brunk, (2006), The lysosomal-mitochondrial axis theory of postmitotic aging and cell death. Chem Biol Interact. 163:29-37), we examined the lysosomal marker LAMPI and cathepsin D, the predominant lysosomal aspartic protease, by immunoblotting (FIG. 6, B and C). […] Cathepsin D is synthesized as a 43-kD preprocathepsin D that is cleaved cotranslationally and glycosylated to form a 46-kD procathepsin D, which is targeted to lysosomes yielding an intermediate that is further cleaved into a mature enzyme consisting of a 15-kD light chain and a 28-kD heavy chain.

[4] = system: PC3 cells; experiment: Time-lapse microscopy of PC3 cells; settings: 5% FBS
Description: Time-lapse video microscopy: Cells cultured in 24-well plates were imaged on an Olympus IX81 inverted microscope under environmental control (37° C. and 5% CO2) for 3 days. Imaging started 6 hours after the addition of the compounds and was taken at 1-hour intervals.

O=c1[nH]c2ccccc2n1C1CCN(Cc2ccc(-c3nc4cc5nc[nH]c5cc4nc3-c3ccccc3)cc2)CC1 [II-4, 1-(1-(4-(7-phenyl-1H-imidazo[4,5-g]quinoxalin-6-yl)benzyl)piperidin-4-yl)-1H-benzo[d]imidazol-2 (3H)-one]
cell viability, II-4 (Akti-1/2) in combination with CQ [1]: CQ accelerated cell death in combination with II-4; also recorded: rapid drop in cell viability with complete cell death observed by day 10 | cell viability, II-4 (Akti-1/2) in combination with CQ ([1]; listed as Akti-1/2): significantly accelerated death rate | AVO accumulation and apoptotic nuclei, II-4 and CQ (multispectral imaging flow cytometry) [2]: further increase in AVO accumulation in live cells and a concomitant increase in cells with condensed apoptotic nuclei | AVO accumulation, agent alone (multispectral imaging flow cytometry) [2]: induced AVO accumulation without significant loss of viability | AVs and nuclei by EM, Akti-1/2 and CQ ([2]; 5 μM Akti-1/2, 10 μM CQ, 0.5% FBS): accumulation of larger AVs and the appearance apoptotic nuclei | accumulation of LC3-II ([2]; II-4 alone): significant accumulation of LC3-II within 24 h | accumulation of LC3-II, with CQ cotreatment ([2]; II-4 and 10 μM CQ): further enhanced upon CQ cotreatment | induction of AV accumulation / autophagy, agent alone ([2]; listed as Akti-1/2): induced overt autophagy; also recorded: induced accumulation of AVs | cathepsin D forms, II-4 and CQ [3]: the precursor forms of cathepsin D accumulated to even higher levels than either alone, whereas the mature 28-kD chain decreased gradually | p62 level [3]: reduced the level of p62 | LAMP1 levels ([3]; agent alone): increase in LAMP1 levels | p62 level ([3]; listed as Akti): caused a reduction in p62 levels | cell morphology, II-4 and CQ ([4]; 10 μM II-4, 10 μM CQ): cell shrinkage and plasma membrane rupture was observed within 48 h | cell division and morphology, agent alone ([4]; 10 μM, 3 d): near-complete inhibition of cell division without overt cell death
